Test results: patent US20240254138A1, “TRICYCLIC PYRIMIDINES AS CYCLIN-DEPENDENT KINASE 7 (CDK7) INHIBITORS” (JANSSEN PHARMACEUTICA NV, priority 2021, published 2024)

Experiments:
[1] = system: RNA Polymerase II Serine 5 phosphorylation (Rpb1 CTD, downstream substrate of CDK7) in A549 cells; assay: Imaging-based cellular RNA PolII Ser5 phosphorylation assay in A549 cells; type: cell-based, human; conditions: wild-type CDK7, RNA PolII Ser5 phosphorylation, averaged over all measurements; for IC50: Homo sapiens, A549, A549 cells, read-out: CDK7_A549 Wild-type CDK7 (pIC50) (converted); for CDK7_A549 Wild-type CDK7 (pIC50): A549 cells
From the text: (§1) To evaluate inhibition of CDK7 kinase activity, a 384-well automated imaging assay was used. This assay detects Serine 5 phosphorylation on a unique heptapeptide sequence in the C-terminal domain of Rpb1 subunit of RNA polymerase II, the downstream substrate of CDK7. This heptapeptide sequence is repeated up to 52 times in the CTD of Rpb1.
(§2) A549 adenocarcinoma human alveolar basal epithelial cells (ATCC, CCL-185), rabbit Phospho-Rpb1 CTD (Ser5) antibody (D9N51 (Cell Signaling Technology)), DMEM (Sigma), Fetal Bovine Serum (Biowest), L-glutamine (Sigma), Penicillin/Streptomycin (Life Technologies), Sodium Pyruvate (Sigma), Hepes (Sigma), poly-D-lysine coated μclear 384 black plates (Greiner), formaldehyde (PolySciences), D-PBS (Sigma), Methanol (Sigma), Alexa Fluor 488 goat anti rabbit IgG secondary antibody (Life Technologies), HCS CellMask™ Deep Red stain (Life Technologies), Hoechst 33258 (Invitrogen).
(§3) RNA Polymerase II Serine 5 phosphorylation was detected using a specific rabbit Phospho-Rpb1 CTD (Ser5) antibody. A549 adenocarcinoma human alveolar basal epithelial cells were seeded in 20 μl medium (DMEM supplemented with 1% Fetal Bovine Serum (heat inactivated 30′ 56° C.), 2 mM L-glutamine, 50 U/ml penicillin 50 μg/ml streptomycin, 1 mM sodium pyruvate and 50 mM hepes) at 1000 cells/well and cultured in poly-D-lysine coated μclear 384 black plates for 20 hours at 37° C. and 5% CO2.
(§4) After incubation cells were challenged with compound for 3 hours at 37° C. and 5% CO2. DMSO was used as high control and as low control 10 μM of the following reference compound was used:
(§5) 40 nl of test compounds and controls were spotted in cell plates using Echo Liquid Handler (Echo 550, Labcyte). Incubation was followed by 20 minutes fixation with 20 μl 10% formaldehyde at room temperature. Medium/formaldehyde solution was removed, plates were washed 3 times with 30 μl D-PBS (w/o Ca^2+ and Ma^2+) and permeabilization was done by adding 20 μl ice cold methanol for 20 minutes. Cells were washed again 3 times with 30 μl D-PBS and 20 μl blocking buffer (25 ml fetal bovine serum in 500 ml D-PBS) was added for 1 hour.
(§6) After removing blocking buffer 20 μl 1/1000 primary antibody rabbit Phospho-Rpb1 CTD (Ser5) antibody was added which binds to the phosphorylated Serine5 of the heptapeptide sequences in the CTD of Rpb1. Primary antibody was removed, and plates were washed 3 times with 30 μl D-PBS followed by addition of 20 μl 1/2000 Alexa Fluor 488 goat anti rabbit IgG secondary antibody for final detection of Phospho-Rpb1 CTD (Ser5) together with 1/5000 HCS CellMask™ Deep Red stain for membrane staining and 1/5000 Hoechst 33258 for nucleus staining. Last, plates were washed 2 times with 30 μl D-PBS and wells were filled with 40 μL D-PBS, plates were sealed (Thermowell sealing tape) and stored at 4° C. until reading. Plates were read with Opera Phenix (Perkin Elmer) with 10× air objective. Data were calculated and analyzed in Phaedra.
(§7) IC50 values were calculated using the following formula: […]
(§8) Average value of all HC's and all LC's are used for normalizations.
(§9) A best-fit curve is fitted by a minimum sum of squares method to the plot of % Control vs. compound concentration. From this an IC50 value can be obtained. An estimate of the slope of the plot in terms of the Hill coefficient is also obtained.

[2] = system: RNA Polymerase II Serine 5 phosphorylation in A549 cells overexpressing CDK7-mutant (C312S); assay: Imaging-based cellular RNA PolII Ser5 phosphorylation assay in A549 cells overexpressing CDK7-mutant (C312S); type: cell-based, human; conditions: RNA PolII Ser5 phosphorylation, averaged over all measurements; for IC50: Homo sapiens, A549, A549 cells overexpressing CDK7-mutant (C312S), read-out: CDK7_A549 mutant hCDK7(pIC50) (converted); for CDK7_A549 mutant hCDK7(pIC50): A549 cells overexpressing CDK7-mutant (C312S)
From the text: as §1, §2, §3, §4, §5, §6, §7, §8, §9
In parallel this assay was performed in A549 cells overexpressing CDK7-mutant (C312S) to evaluate the effect of the covalent bond on potency and to screen for potential off-target effects. Mutation of Cysteine to Serine (C312S), a less nucleophilic amino acid, prevents CDK7 inhibitors from covalently binding to CDK7 and from inhibiting CDK7 activity in an irreversible manner. A stably transduced A549 cell pool was generated that overexpresses CDK7 mutant (C312S), but also expresses endogenous CDK7-WT. Covalent binders targeting the cysteine at position 312 will show a shift in potency in A549 cells overexpressing mutant C312S CDK7.

Row | Structure (SMILES) | IC50 [1] | IC50 [2] | CDK7_A549 Wild-type CDK7 (pIC50) [1] | CDK7_A549 mutant hCDK7(pIC50) [2]
1 | C=CC(=O)N1CCC(N2CC(c3ccc4c(c3C)Nc3nccc(C5CCOCC5)c3CO4)C2)CC1 [Compound 131] | 6610 nM | > 10 µM | – | –
2 | CC#CC(=O)N1CC(N2CC(c3cc4c(c(C)n3)O[C@@H](C)c3c(N5CCOCC5)ccnc3N4)C2)C1 (single isomer, unassigned) [Compound 441] | – | – | <5 | <5
3 | C=CC(=O)N1CC(N2CCN(C)[C@@H](c3ccc4c(c3)Nc3nccc(N5CCOCC5)c3CO4)C2)C1 (single isomer, unassigned) [Compound 144] | > 10000 nM | > 10 µM | – | –
4 | CC#CC(=O)N1CC(n2cc(-c3cc(C#N)c4c(c3)Nc3nccc(N5CCOCC5)c3[C@@H](C)O4)cn2)C1 (single isomer, unassigned) [Compound 450] | 1780 nM | > 10 µM | – | –
5 | CC#CC(=O)N1CCC(N2CC[C@H](c3cc4c(c(C)n3)OCc3c(N5CCOCC5)ccnc3N4)C2)CC1 (single isomer, unassigned) [Compound 438] | 191 nM | 3.09 µM | – | –
6 | C=CC(=O)N1CC(N2CCN(C)[C@H](c3ccc4c(c3)Nc3nccc(N5CCOCC5)c3CO4)C2)C1 (single isomer, unassigned) [Compound 142] | 1450 nM | > 10 µM | – | –
7 | C=CC(=O)N1CC[C@H](N2CCC(c3cc4c(c(C)n3)OCc3c(-c5cnn(C)c5)ccnc3N4)CC2)C1 (single isomer, unassigned) [Compound 293] | 102 nM | > 10 µM | – | –
8 | CC#CC(=O)N1CCC(Oc2cc(-c3cc4c(c(C)n3)OCc3c(N5CCOCC5)ccnc3N4)ccn2)CC1 [Compound 409] | 1450 nM | 7.08 µM | – | –
9 | CC#CC(=O)N1CCC(N2CC(c3cc4c(c(C)n3)O[C@@H](C)c3c(N5CCOCC5)ccnc3N4)C2)CC1 (single isomer, unassigned) [Compound 360] | 676 nM | > 10 µM | – | –
10 | C=CC(=O)N1CC(c2nc(C)c(-c3cc4c(c(C)n3)OCc3c(N5CCOCC5)ccnc3N4)c(C)n2)C1 [Compound 280] | 126 nM | > 10 µM | – | –
11 | CC#CC(=O)N1CC[C@@H](N2CC(c3cc4c(c(C)n3)O[C@H](C)c3c(N5CCOCC5)ccnc3N4)C2)C1 (single isomer, unassigned) [Compound 531] | – | – | <5 | <5
12 | C=CC(=O)N1CC[C@@H](N2CC(c3cc4c(c(C#N)n3)OCc3c(N5CCOCC5)ccnc3N4)C2)C1 (single isomer, unassigned) [Compound 474] | 575 nM | > 10 µM | – | –
13 | C=CC(=O)N1CCC(N2CC[C@H](O)[C@@H](c3ccc4c(c3)OCc3c(N5CCOCC5)ccnc3N4)C2)CC1 (mixture of isomers) [Compound 157] | > 10000 nM | > 10 µM | – | –
14 | C#CCCN(C)C/C=C/C(=O)N1CC(N2CCC(c3cc(Cl)c4c(c3)Nc3nccc(N5CCOCC5)c3CO4)CC2)C1 [Compound 168] | 77.6 nM | > 10 µM | – | –
15 | C=CC(=O)N1CCC(n2ccc(-c3ccc4c(c3)OCc3c(N5CCOCC5)ccnc3N4)cc2=O)CC1 [Compound 408] | > 10000 nM | > 10 µM | – | –
16 | CC#CC(=O)N1CC[C@H](N2CC(c3cc4c(c(C)n3)O[C@H](C)c3c(N5CCOCC5)ccnc3N4)C2)C1 (single isomer, unassigned) [Compound 530] | – | – | <5 | <5
17 | C#Cc1cc(C2CN([C@H]3CCN(C(=O)C=C)C3)C2)cc2c1OCc1c(-c3cnn(C)c3)ccnc1N2 (single isomer, unassigned) [Compound 492] | 126 nM | 9.55 µM | – | –

Row | Structure (SMILES) | IC50 [1] | IC50 [2] | CDK7_A549 Wild-type CDK7 (pIC50) [1] | CDK7_A549 mutant hCDK7(pIC50) [2]
18 | C=CC(=O)N1CCC(N2CC(c3cc4c(c(C)n3)O[C@H](C)c3c(N5CCOCC5)ccnc3N4)C2)CC1 (single isomer, unassigned) [Compound 423] | 58.9 nM | 5.89 µM | – | –
19 | CC#CC(=O)N1CC[C@@H](N2CC(c3cc4c(c(C)n3)O[C@H](C)c3c(N5CCOCC5)ccnc3N4)C2)C1 (single isomer, unassigned) [Compound 513] | – | > 10 µM | 6.36 | –
20 | C=CC(=O)N1CC[C@@H](N2CCC(c3cc4c(c(C)n3)OCc3c(N5CCOCC5)ccnc3N4)CC2)C1 (single isomer, unassigned) [Compound 294] | – | – | 7.24 | <5
21 | CC#CC(=O)N1CC(N2CCC(c3cc4c(c(C#N)n3)O[C@H](C)c3c(N5CCOCC5)ccnc3N4)CC2)C1 (single isomer, unassigned) [Compound 481] | 3020 nM | > 10 µM | – | –
22 | CC#CC(=O)N1CC(N2CC[C@H](c3cc4c(c(C)n3)OCc3c(N5CCOCC5)ccnc3N4)N(C)CC2)C1 (single isomer, unassigned) [Compound 448] | 209 nM | 8.32 µM | – | –
23 | C=CC(=O)N1CC[C@@H](N2CCC(c3cc4c(c(C)n3)OCc3c(-c5cnn(C)c5)ccnc3N4)CC2)C1 (single isomer, unassigned) [Compound 182] | 38 nM | > 10 µM | – | –
24 | CC#CC(=O)N1CC(N2CCC(c3cc4c(c(C)n3)OCc3c(-c5cnn(C)c5)ccnc3N4)CC2)C1 [Compound 276] | 195 nM | > 10 µM | – | –
25 | C/C=C/C(=O)N1CC(N2CCC(c3ccc4c(c3)Nc3nccc(N5CCOCC5)c3CO4)CC2)C1 [Compound 106] | ~10000 nM | > 10 µM | – | –
26 | C=CC(=O)N1CC(N2CCOC(c3ccc4c(c3)OCc3c(N5CCOCC5)ccnc3N4)C2)C1 (stereo not drawn) [Compound 266] | ~10200 nM | > 10 µM | – | –
27 | C/C=C/C(=O)N1CC[C@@H](N2CCC(c3cc4c(c(C)n3)OCc3c(-c5cnn(C)c5)ccnc3N4)CC2)C1 (single isomer, unassigned) [Compound 302] | ~10000 nM | > 10 µM | – | –
28 | CC#CC(=O)N1CC[C@H](N2CC(c3cc4c(c(C)n3)O[C@@H](C)c3c(N5CCOCC5)ccnc3N4)C2)C1 (single isomer, unassigned) [Compound 533] | – | – | 6.33 | <5
29 | C=CC(=O)N1CCC2(CC1)CCN(c1cc3c(c(C)n1)OCc1c(-c4cnn(C)c4)ccnc1N3)CC2 [Compound 479] | > 10000 nM | > 10 µM | – | –
30 | C=C(C)C(=O)N1CC[C@H](N2CCC(c3cc4c(c(C)n3)OCc3c(-c5cnn(C)c5)ccnc3N4)CC2)C1 (single isomer, unassigned) [Compound 312] | > 10000 nM | > 10 µM | – | –
31 | C#Cc1cc(C2CN([C@@H]3CCN(C(=O)C=C)C3)C2)cc2c1OCc1c(-c3cnn(C)c3)ccnc1N2 (single isomer, unassigned) [Compound 473] | 166 nM | > 10 µM | – | –
32 | C=CC(=O)N1CCC(N2CC(c3cc4c(c(C)n3)O[C@@H](C)c3c(N5CCOCC5)ccnc3N4)C2)CC1 (single isomer, unassigned) [Compound 430] | 933 nM | > 10 µM | – | –
33 | CC#CC(=O)N1CC(N2CC(c3cc4c(c(C)n3)O[C@@H](C)c3c(N5CCOCC5)ccnc3N4)C2)C1 (single isomer, unassigned) [Compound 356] | 7760 nM | > 10 µM | – | –
